Among the data in patent publication US11708348B2, “Protease inhibitors for treatment of coronavirus infections” (The Scripps Research Institute, priority 2021, dated 2023) are EC50 values, retold here.

In one test the test system is SARS-CoV-2 strain USA-WA1/2020. As to the kind of experiment: microbe, parasite or virus in culture. It counts as cell-based. As to conditions: Severe acute respiratory syndrome coronavirus 2, HeLa-ACE2, 24 h, HeLa-ACE2 cells, SARS-CoV-2 infection, 24 h; class symbols; read-out: EC50, uM (Hela).
Consider `CC[C@@H](O)C(=O)N1CC2(CC2)C[C@H]1C(=O)N[C@@H](C[C@@H]1CCNC1=O)C(=O)COC(F)(F)F` [Compound 371, (S)-5-((R)-2-hydroxybutanoyl)-N-((S)-3-oxo-1-((S)-2-oxopyrrolidin-3-yl)-4-(trifluoromethoxy)butan-2-yl)-5-azaspiro[2.4]heptane-6-carboxamide], for which the EC50 was in the range of 0.05 to 0.2 µM. Turning to `Cc1cccc(F)c1NC(=O)C(=O)N[C@@H](CC(C)C)C(=O)N[C@@H](C[C@@H]1CCNC1=O)C(=O)COc1c(F)c(F)cc(F)c1F` [Compound 82, N1-(2-fluoro-6-methylphenyl)-N2-((S)-4-methyl-1-oxo-1-(((S)-3-oxo-1-((S)-2-oxopyrrolidin-3-yl)-4-(2,3,5,6-tetrafluorophenoxy)butan-2-yl)amino)pentan-2-yl)oxalamide], the EC50 was less than 0.05 µM. For `CC(C)C[C@H](NC(=O)C(=O)NC(C)(C)C(F)(F)F)C(=O)N[C@@H](C[C@@H]1CCNC1=O)C(=O)COC(F)(F)F` [Compound 211, N1-((S)-4-methyl-1-oxo-1-(((S)-3-oxo-1-((S)-2-oxopyrrolidin-3-yl)-4-(trifluoromethoxy)butan-2-yl)amino)pentan-2-yl)-N2-(1,1,1-trifluoro-2-methylpropan-2-yl)oxalamide], the EC50 was less than 0.05 µM.

Take `CC(C)C[C@@H](OC(=O)Nc1ccccc1)C(=O)N1CC2(CC2)C[C@H]1C(=O)N[C@@H](C[C@@H]1CCNC1=O)C(=O)COC(F)(F)F` [Compound 331, (R)-4-methyl-1-oxo-1-((S)-6-(((S)-3-oxo-l-((S)-2-oxopyrrolidin-3-yl)-4-(trifluoromethoxy)butan-2-yl)carbamoyl)-5-azaspiro[2.4]heptan-5-yl)pentan-2-yl phenylcarbamate]: the EC50 is less than 0.05 µM.

As to `COc1cccc(OC)c1NC(=O)C(=O)N[C@@H](CC(C)C)C(=O)N[C@@H](C[C@@H]1CCNC1=O)C(=O)COC(F)(F)F` [Compound 164, N1-(2,6-dimethoxyphenyl)-N2-((S)-4-methyl-1-oxo-1-(((S)-3-oxo-1-((S)-2-oxopyrrolidin-3-yl)-4-(trifluoromethoxy)butan-2-yl)amino)pentan-2-yl)oxalamide], the EC50 is less than 0.05 µM. With `O=C(NC1CC(F)(F)C1)C(=O)N[C@@H](CC1CC1)C(=O)N[C@@H](C[C@@H]1CCNC1=O)C(=O)COC(F)(F)F` [Compound 176, N1-((S)-3-cyclopropyl-1-oxo-1-(((S)-3-oxo-1-((S)-2-oxopyrrolidin-3-yl)-4-(trifluoromethoxy)butan-2-yl)amino)propan-2-yl)-N2-(3,3-difluorocyclobutyl)-oxalamide], the EC50 was less than 0.05 µM.

As to `CC(C)C[C@H](NC(=O)C(=O)NC1(C)CC1)C(=O)N[C@@H](C[C@@H]1CCNC1=O)C(=O)COc1c(F)c(F)cc(F)c1F` [Compound 99, N1-((S)-4-methyl-1-oxo-1-(((S)-3-oxo-1-((S)-2-oxopyrrolidin-3-yl)-4-(2,3,5,6-tetrafluorophenoxy)butan-2-yl)amino)pentan-2-yl)-N2-(1-methyl-cyclopropyl)oxalamide], the EC50 lay in the range of 0.05 to 0.2 µM. Take `CC(C)C[C@H](NC(=O)C(=O)Nc1ccc(F)cc1F)C(=O)N[C@@H](C[C@@H]1CCNC1=O)C(=O)COc1c(F)c(F)cc(F)c1F` [Compound 78, N1-(2,4-difluorophenyl)-N2-((S)-4-methyl-1-oxo-1-(((S)-3-oxo-1-((S)-2-oxopyrrolidin-3-yl)-4-(2,3,5,6-tetrafluorophenoxy)butan-2-yl)amino)pentan-2-yl)oxalamide]: the EC50 was less than 0.05 µM. On the same count and under the same terms, the result for `COc1ccccc1NC(=O)C(=O)N[C@@H](CC(C)C)C(=O)N[C@@H](C[C@@H]1CCNC1=O)C(=O)COc1c(F)c(F)cc(F)c1F` [Compound 112, N1-(2-methoxyphenyl)-N2-((S)-4-methyl-1-oxo-1-(((S)-3-oxo-1-((S)-2-oxopyrrolidin-3-yl)-4-(2,3,5,6-tetrafluorophenoxy)butan-2-yl)amino)pentan-2-yl)oxalamide] reads 0.05 to 0.2 µM; that for `O=C(Nc1ccccc1)C(=O)N[C@@H](CC1CCCCC1)C(=O)N[C@@H](C[C@@H]1CCNC1=O)C(=O)COc1c(F)c(F)cc(F)c1F` [Compound 35, N1-((S)-3-cyclohexyl-1-oxo-1-(((S)-3-oxo-1-((S)-2-oxopyrrolidin-3-yl)-4-(2,3,5,6-tetrafluorophenoxy)butan-2-yl)amino)propan-2-yl)-N2-phenyloxalamide], less than 0.05 µM.

The test is the same for the next values; noted with them: Severe acute respiratory syndrome coronavirus 2, HeLa-ACE2, 24 h, HeLa-ACE2 cells, SARS-CoV-2 infection, 24 h; read-out: EC50, uM (Hela).
As to `O=C(N[C@@H](C[C@@H]1CCNC1=O)C(=O)COC(F)(F)F)C1CCCCN1C(=O)[C@@H](O)c1ccccc1` (stereo partly drawn) [Compound 769, l-((S)-2-hydroxy-2-phenylacetyl)-N-((S)-3-oxo-1-((S)-2-oxopyrrolidin-3-yl)-4-(trifluoromethoxy)butan-2-yl)piperidine-2-carboxamide], the EC50 is less than 0.05 µM.

Take `O=C1NCC[C@H]1C[C@H](NC(=O)[C@@H]1CC2(CC2)CN1C(=O)C(O)c1ccccc1C(F)(F)F)C(=O)COC(F)(F)F` (stereo partly drawn) [Compound 406, (6S)-5-(2-hydroxy-2-(2-(trifluoromethyl)-phenyl)acetyl)-N-((S)-3-oxo-1-((S)-2-oxopyrrolidin-3-yl)-4-(trifluoromethoxy)butan-2-yl)-5-azaspiro[2.4]heptane-6-carboxamide]: the EC50 lay within 0.05 to 0.2 µM. As for `CC(C)C[C@H](NC(=O)C(=O)Nc1ccccc1F)C(=O)N[C@@H](CCS(C)(=O)=O)C(=O)COc1c(F)c(F)cc(F)c1F` [Compound 655, N1-(2-fluorophenyl)-N2-((S)-4-methyl-1-(((S)-5-(methylsulfonyl)-2-oxo-1-(2,3,5,6-tetrafluorophenoxy)pentan-3-yl)amino)-1-oxopentan-2-yl)oxalamide], the EC50 was 0.5 to 1 µM.

Take `O=C1NCC[C@H]1C[C@H](NC(=O)[C@@H]1CC2(CC2)CN1C(=O)C1(O)CCC(C(F)(F)F)CC1)C(=O)COC(F)(F)F` (stereo partly drawn) [Compound 649, (S)-5-(l-hydroxy-4-(trifluoromethyl)cyclohexane-1-carbonyl)-N-((S)-3-oxo-1-((S)-2-oxopyrrolidin-3-yl)-4-(trifluoromethoxy)butan-2-yl)-5-azaspiro[2.4]heptane-6-carboxamide]: the EC50 was 0.05 to 0.2 µM. The same measure, in the same setting: the result for `CC1(C)[C@@H]2[C@@H](C(=O)N[C@@H](C[C@@H]3CCNC3=O)C(=O)COC(F)(F)F)N(C(=O)c3cc(C(F)(F)F)no3)C[C@@H]21` [Compound 488, (1R,2S,5S)-6,6-dimethyl-N-((S)-3-oxo-1-((S)-2-oxo-pyrrolidin-3-yl)-4-(trifluoromethoxy)butan-2-yl)-3-(3-(trifluoromethyl)-isoxazole-5-carbonyl)-3-azabicyclo[3.1.0]-hexane-2-carboxamide] reads 0.05 to 0.2 µM; that for `CC(C)C[C@@H](NC(=O)OC(C)(C)C)C(=O)N1CC2(CC2)C[C@H]1C(=O)N[C@@H](C[C@@H]1CCNC1=O)C(=O)COC(F)(F)F` [Compound 643, tert-butyl ((R)-4-methyl-1-oxo-1-((S)-6-(((S)-3-oxo-1-((S)-2-oxopyrrolidin-3-yl)-4-(trifluoromethoxy)butan-2-yl)carbamoyl)-5-azaspiro[2.4]heptan-5-yl)pentan-2-yl)carbamate], less than 0.05 µM; that for `[2H]C([2H])([2H])CCCCC(=O)N1CC2(CC2)C[C@H]1C(=O)N[C@@H](C[C@@H]1CCNC1=O)C(=O)COC(F)(F)F` [Compound 757, (S)-5-(hexanoyl-6,6,6-d3)-N-((S)-3-oxo-l-((S)-2-oxopyrrolidin-3-yl)-4-(trifluoromethoxy)butan-2-yl)-5-azaspiro[2.4]heptane-6-carboxamide], less than 0.05 µM.

For the compound `O=C1NCC[C@H]1C[C@H](NC(=O)[C@@H]1[C@H]2CCC[C@H]2CN1C(=O)c1noc2ccc(Cl)cc12)C(=O)COC(F)(F)F` [Compound 659, (1S,3aR,6aS)-2-(5-chlorobenzo[d]isoxazole-3-carbonyl)-N-((S)-3-oxo-1-((S)-2-oxopyrrolidin-3-yl)-4-(trifluoromethoxy)butan-2-yl)octahydrocyclopenta[c]pyrrole-1-carboxamide], the EC50 was less than 0.05 µM. Regarding `CC(C)(C)NC(=O)C(=O)N1CC2(CCC2)CC1C(=O)N[C@@H](C[C@@H]1CCNC1=O)C(=O)COC(F)(F)F` (stereo partly drawn) [Compound 511, 6-(2-(tert-butylamino)-2-oxoacetyl)-N-((S)-3-oxo-1-((S)-2-oxopyrrolidin-3-yl)-4-(trifluoromethoxy)butan-2-yl)-6-azaspiro[3.4]-octane-7-carboxamide], the EC50 lay in the range of 0.05 to 0.2 µM. In the case of `CC(C)(C)C[C@@H](O)C(=O)N1CC2(CC2)C[C@H]1C(=O)N[C@@H](C[C@@H]1CCNC1=O)C(=O)COC(F)(F)F` [Compound 658, (S)-5-((R)-2-hydroxy-4,4-dimethylpentanoyl)-N-((S)-3-oxo-1-((S)-2-oxopyrrolidin-3-yl)-4-(trifluoromethoxy)butan-2-yl)-5-azaspiro[2.4]heptane-6-carboxamide], the EC50 was less than 0.05 µM. For `CC(C)(C)NC(=O)C(=O)N1C[C@@H]2C[C@@H]2[C@H]1C(=O)N[C@@H](C[C@@H]1CCNC1=O)C(=O)COC(F)(F)F` [Compound 493, (1S,2S,5R)-3-(2-(tert-butylamino)-2-oxoacetyl)-N-((S)-3-oxo-1-((S)-2-oxopyrrolidin-3-yl)-4-(trifluoromethoxy)butan-2-yl)-3-azabicyclo[3.1.0]-hexane-2-carboxamide], the concentration giving a half-maximal response (EC50) is 0.2 to 0.5 µM. The same measure, in the same setting: the result for `CC(C)CC(=O)N1CC2(CC2)C[C@H]1C(=O)N[C@@H](C[C@@H]1CCNC1=O)C(=O)COC(F)(F)F` [Compound 707, (S)-5-(3-methylbutanoyl)-N-((S)-3-oxo-1-((S)-2-oxopyrrolidin-3-yl)-4-(trifluoromethoxy)butan-2-yl)-5-azaspiro[2.4]heptane-6-carboxamide] reads 0.05 to 0.2 µM.

The test is the same for the next values; noted with them: Severe acute respiratory syndrome coronavirus 2, HeLa-ACE2, 24 h; read-out: EC50, uM (Hela).
As for `O=C(Cc1ccccc1)O[C@@H](C(=O)N1C[C@@H]2CCC[C@@H]2[C@H]1C(=O)N[C@@H](C[C@@H]1CCNC1=O)C(=O)COC(F)(F)F)c1ccccc1F` [Compound 622, (R)-1-(2-fluorophenyl)-2-oxo-2-((1S,3aR,6aS)-1-(((S)-3-oxo-1-((S)-2-oxopyrrolidin-3-yl)-4-(trifluoromethoxy)butan-2-yl)carbamoyl)hexahydrocyclopenta[c]-pyrrol-2(1H)-yl)ethyl 2-phenylacetate], the EC50 is 0.05 to 0.2 µM.

Broadly, the EC50 is the concentration needed to bring the measured effect to its halfway point.
